In patent publication US7326540B2, “Methods for identifying compounds that modulate stabilization of secretase-associated proteins” (priority 2003, dated 2008):
Where a SMILES comes first, the peptide text is derived from it. The star is where a group is joined. Cbz = O=C(OCc1ccccc1)*; CH2F = FC*

How the values were obtained:
[1] = tested on: γ-secretase complex proteins; experiment: γ-secretase complex protein levels by Western blot in H4 cells; assay type: cell-based, human; conditions: zVAD treatment
Procedure: Protein levels of PS1, nicastrin, Pen2 and Aph1A (components of the γ-secretase complex) were determined by Western blot (WB) analysis in H4 cells. […] The immature form of nicastrin appeared to be increased earlier (6 hrs) concurrently with caspase-3 activation (FIG. 5A). Furthermore, PS1-NTF, PS1-CTF, Pen2 and Aph1A were also up regulated (FIG. 5A). STS treatment also led to the generation of a caspase-mediated fragment of PS1-CTF (indicated by an arrow as a PS1-CTF). […] As a control for protein loading, the same blot was reprobed with an anti-Cu, Zn-SOD Ab showing that Cu, Zn-SOD protein levels were not increased.

[2] = tested on: CHO cells overexpressing APP751 and PS1 WT; experiment: Induction of apoptosis (caspase 3 activation, TUNEL); assay type: cell-based, Chinese Hamster; conditions: STS 1 μM, after 6 hrs
γ-secretase = experiment: Secreted Aβ1-total ELISA in CHO-CC99/PS1 cells; assay type: cell-based, Chinese Hamster; conditions: STS-treated CHO-CC99/PS1 cells, 6 hours
Procedure: (§1) Chinese Hamster Ovary (CHO) cells expressing APP751 and BACE (CAB), CHO cells expressing full-length APP and wild-type PS1 (CHO-APP751/PS1) or expressing C99 and wild-type PS1 (CHO-CC99/PS1), H4 human neuroglioma cells expressing APP751 (H4-APP751), mouse embryonic fibroblast (MEF), embryonic stem (ES) cells, and human epithelial A431 cells were grown as described previously (Marambaud, P. et al., Embo J 21, 1948-56 (2002); Cai, H. et al., Nat Neurosci 4, 233-4 (2001); Sato, N. et al., Nat Cell Biol 2, 863-70 (2000); Puglielli, L., Ellis, B. C., Saunders, A. J. & Kovacs, D. M., J Biol Chem 278, 19777-83 (2003); Wolfe, M. S. et al., Nature 398, 513-7 (1999)). For the induction of apoptosis, we used staurosporine or etoposide (Calbiochem (EMD Biosciences, San Diego, Calif.)). For Aβ measurements, cells were seeded at the density of 0.5×10^6 cells per well in 6 well plates. After 48 hours, cells were treated with either STS (1 μM) for 6 hours. […]
Secreted Aβ1-total was measured in the conditioned media of untreated cells or of cells treated with STS or STS plus zVAD using a sensitive ELISA (Wolfe, M. S. et al., Nature 398, 513-7 (1999). At least three different experiments were carried out and each experiment was performed at least in triplicate. […]

[3] = tested on: γ-secretase complex proteins; experiment: γ-secretase complex protein levels by Western blot in CHO cell lines; assay type: cell-based, Chinese Hamster
Procedure: as §1, with “hours. In order to inhibit caspase activation a sister plate of cells was pre-treated with zVAD ([…], Enzyme Systems Products) for 1 hour before STS treatment. For time-course experiments, cells were seeded at the density of 2×10^6 cells per 100 mm dish and treated with STS (1 μM) or etoposide (100 μg/mL). At different time points (0, 3, 6, 9, 12 and 24 hours), the cells were scraped, centrifuged and then lysed in buffer containing 1% NP40.” for “hours.”

SMILES | upregulation of γ-secretase complex proteins during STS-induced apoptosis [1] | Apoptosis (caspase 3 activated, TUNEL positive) [2] | Aβ1-total increase compared to untreated cells (γ-secretase) | nicastrin and Pen2 protein levels ([3]; STS treatment, CHO cells overexpressing APP751 and PS1WT and mouse fibroblasts) | endogenous nicastrin protein levels ([3]; six hours after STS treatment, CAB cells)
COC(=O)C[C@H](NC(=O)[C@H](C)NC(=O)[C@@H](NC(=O)OCc1ccccc1)C(C)C)C(=O)CF [zVAD] (Cbz-Val-Ala-Asp(OMe)-CH2F) | prevented upregulation |  |  |  | 
CN[C@@H]1C[C@H]2O[C@@](C)([C@@H]1OC)n1c3ccccc3c3c4c(c5c6ccccc6n2c5c31)C(=O)NC4 [STS, staurosporine] |  | induced apoptosis | ~1.5 fold | up-regulated | increase
